Measurements from US20220361496A1, “HERBICIDE COMPOSITIONS” (UPL CORPORATION LIMITED, priority 2019, published 2022).

Columns and labels:
Format in all cases: in vivo
Brachiaria plantaginea = assay: Pre-emergence herbicidal efficacy, % control of Brachiaria plantaginea; details: for % Control 35 DAA Brachiaria plantaginea: 35 DAA (Table 3)
Experimental: (§1) Experiments were carried out evaluate the efficacy, selectivity and synergism of propisochlor combinations when applied at soybean pre-emergence.
(§2) The evaluation for the damage on undesired weeds caused by the compositions was carried out using a scale from 0 to 100%, compared to the untreated control plants. Here, 0 means no damage and 100 means complete destruction of the plants.
(§3) The tables 1 below relate to the herbicidal activity, of the individual actives and the combinations applied in pre-emergence application at 35 days after administration (DAA) treatment.

Ipomoea hederifolia = assay: Pre-emergence herbicidal efficacy, % weed control of Ipomoea hederifolia
Experimental: as §1, §2, §3

Spermacoce verticillata = assay: Pre-emergence herbicidal efficacy, % weed control of Spermacoce verticillata
Experimental: as §1, §2, §3

Cenchrus echinatus = assay: Pre-emergence herbicidal efficacy, % control of Cenchrus echinatus
Experimental: as §1, §2

Ipomoea grandifolia = assay: Pre-emergence herbicidal efficacy, % control of Ipomoea grandifolia
Experimental: as §1, §2

Brachiaria decumbens = assay: Pre-emergence herbicidal efficacy, % control of Brachiaria decumbens
Experimental: as §1, §2

CCOc1nc(F)cc2nc(S(=O)(=O)Nc3c(Cl)cccc3Cl)nn12 [Diclosulam]
% Control of Brachiaria plantaginea 35 DAA (Brachiaria plantaginea; 20 g ai/ha): 50.0%

Cc1nn(-c2cc(NS(C)(=O)=O)c(Cl)cc2Cl)c(=O)n1C(F)F [Sulfentrazone]
% Weed control 35 DAA Ipomoea hederifolia (Ipomoea hederifolia; 75 g ai/ha): 98.00%
% Control 35 DAA Brachiaria plantaginea (Brachiaria plantaginea; 150 g ai/ha): 65.00%
% Weed control 35 DAA Spermacoce verticillata (Spermacoce verticillata; 75 g ai/ha): 92.25%

CC(C)C1(C)N=C(c2ncccc2C(=O)O)NC1=O (stereo not drawn) [imazapyr]
% Control - Cenchrus echinatus 7 DAA (Cenchrus echinatus; 26.6 g ai/ha): 3.8%
% Control - Cenchrus echinatus 28 DAA (Cenchrus echinatus; 26.6 g ai/ha): 0.0%
% Control - Cenchrus echinatus 35 DAA (Cenchrus echinatus; 26.6 g ai/ha): 0.0%
% Control of Ipomoea grandifolia 7 DAA (Ipomoea grandifolia; 66.6 g ai/ha): 16.3%
% Control of Ipomoea grandifolia 14 DAA (Ipomoea grandifolia; 66.6 g ai/ha): 30.0%
% Control of Ipomoea grandifolia 21 DAA (Ipomoea grandifolia; 66.6 g ai/ha): 51.3%
% Control of Ipomoea grandifolia 28 DAA (Ipomoea grandifolia; 66.6 g ai/ha): 62.5%
% Control of Ipomoea grandifolia 35 DAA (Ipomoea grandifolia; 66.6 g ai/ha): 63.8%
% Control of Brachiaria decumbens 7 DAA (Brachiaria decumbens; 26.6 g ai/ha): 30%
% Control of Brachiaria decumbens 14 DAA (Brachiaria decumbens; 26.6 g ai/ha): 12.5%
% Control of Brachiaria decumbens 21 DAA (Brachiaria decumbens; 26.6 g ai/ha): 6.3%
% Control of Brachiaria decumbens 28 DAA (Brachiaria decumbens; 26.6 g ai/ha): 2.5%

CC(C)C1(C)N=C(c2nc3ccccc3cc2C(=O)O)NC1=O (stereo not drawn) [imazaquin]
% Control - Cenchrus echinatus 7 DAA (Cenchrus echinatus; 80.5 g ai/ha): 18.8%
% Control - Cenchrus echinatus 28 DAA (Cenchrus echinatus; 80.5 g ai/ha): 10.0%
% Control - Cenchrus echinatus 35 DAA (Cenchrus echinatus; 80.5 g ai/ha): 6.3%
% Control of Brachiaria decumbens 7 DAA (Brachiaria decumbens; 80.5 g ai/ha): 30%
% Control of Brachiaria decumbens 14 DAA (Brachiaria decumbens; 80.5 g ai/ha): 22.5%
% Control of Brachiaria decumbens 21 DAA (Brachiaria decumbens; 80.5 g ai/ha): 21.3%
% Control of Brachiaria decumbens 28 DAA (Brachiaria decumbens; 80.5 g ai/ha): 18.8%

CCc1cccc(C)c1N(COC(C)C)C(=O)CCl [propisochlor]
% Control - Cenchrus echinatus 7 DAA (Cenchrus echinatus; 540.0 g ai/ha): 91.3%
% Control - Cenchrus echinatus 28 DAA (Cenchrus echinatus; 540.0 g ai/ha): 75.8%
% Control - Cenchrus echinatus 35 DAA (Cenchrus echinatus; 540.0 g ai/ha): 65.0%
% Control - Cenchrus echinatus 7 DAA (Cenchrus echinatus; 1080.0 g ai/ha): 95.3%
% Control - Cenchrus echinatus 28 DAA (Cenchrus echinatus; 1080.0 g ai/ha): 85.0%
% Control - Cenchrus echinatus 35 DAA (Cenchrus echinatus; 1080.0 g ai/ha): 80.0%
% Weed control 35 DAA Ipomoea hederifolia (Ipomoea hederifolia; 525 g ai/ha): 26.25%
% Weed control 35 DAA Ipomoea hederifolia (Ipomoea hederifolia; 675 g ai/ha): 27%
% Control of Ipomoea grandifolia 7 DAA (Ipomoea grandifolia; 540 g ai/ha): 81.3%
% Control of Ipomoea grandifolia 14 DAA (Ipomoea grandifolia; 540 g ai/ha): 87.0%
% Control of Ipomoea grandifolia 21 DAA (Ipomoea grandifolia; 540 g ai/ha): 87.5%
% Control of Ipomoea grandifolia 28 DAA (Ipomoea grandifolia; 540 g ai/ha): 91.3%
% Control of Ipomoea grandifolia 35 DAA (Ipomoea grandifolia; 540 g ai/ha): 91.8%
% Control of Brachiaria plantaginea 35 DAA (Brachiaria plantaginea; 1200 g ai/ha): 84.50%
% Control 35 DAA Brachiaria plantaginea (Brachiaria plantaginea; 1200 g ai/ha): 84.50%
% Weed control 35 DAA Spermacoce verticillata (Spermacoce verticillata; 525 g ai/ha): 92.75%
% Weed control 35 DAA Spermacoce verticillata (Spermacoce verticillata; 675 g ai/ha): 95.75%
% Control of Brachiaria decumbens 7 DAA (Brachiaria decumbens; 540 g ai/ha): 89.5%
% Control of Brachiaria decumbens 14 DAA (Brachiaria decumbens; 540 g ai/ha): 85.8%
% Control of Brachiaria decumbens 21 DAA (Brachiaria decumbens; 540 g ai/ha): 78.8%
% Control of Brachiaria decumbens 28 DAA (Brachiaria decumbens; 540 g ai/ha): 70%
% Control of Brachiaria decumbens 7 DAA (Brachiaria decumbens; 1080 g ai/ha): 92.8%
% Control of Brachiaria decumbens 14 DAA (Brachiaria decumbens; 1080 g ai/ha): 91%
% Control of Brachiaria decumbens 21 DAA (Brachiaria decumbens; 1080 g ai/ha): 85%
% Control of Brachiaria decumbens 28 DAA (Brachiaria decumbens; 1080 g ai/ha): 76.3%
